From patent US20200237937A1, “COMPOSITIONS AND METHODS FOR ASSESSING […] PATHOLOGY” (Navidea Biopharmaceuticals, Inc., priority 2019, published 2020)
Where two headings read alike, the source gives them in different places.

Key:
mannose receptor (CD206) [1] = target: T1, mannose receptor (CD206) (Homo sapiens, UniProt P22897)
Method: (§1) The mass dose of tilmanocept injected into the subjects varied from 125 μg to 400 μg. […] The images shown in FIGS. 1 and 2 were acquired using a Siemens Symbia Intevo camera. Image acquisition times varied between studies from 5-10 minutes.

mannose receptor (CD206) [2] = target: T1, mannose receptor (CD206); conditions: for Mean Joint Specific MARTAD: 5 healthy subjects, IV, 10 mCi 99mTc; for Cutoff Value (MARTAD 2 S.D. above the joint specific mean): from 5 healthy subjects
Method: In certain aspects, the pixel intensities of the ROI and RR are used to derive normalized region-specific mannose receptor targeted localization determination (MARTAD) value. The MARTAD value is quantitative index of the amount of imaging agent localization that can be attributable to disease activity in planar images. Defined broadly, the MARTAD value is determined by assessing the ratio of average pixel intensity of the ROI to the average pixel intensity of the RR. In certain alternative embodiments, the MARTAD value is determined by assessing the ratio of maximum pixel intensity of the ROI to the maximum pixel intensity of the RR.
Following MARTAD value determination for a joint or plurality of joints, the MARTAD value can be used to determine macrophage involvement by comparing the MARTAD of the first joint to a normal MARTAD value for a corresponding joint (e.g., RtPIP2 RA vs RtPIP2 healthy). In certain implementations, the normal MARTAD value is determined by aggregating the MARTAD values for each joint from a pool of healthy subjects (e.g., not suffering from RA). In exemplary implementations, the method for defining the joint specific RR in the pool of healthy subjects will be the same as that used for the patient population. Macrophage involvement in a subject is indicated by a joint specific MARTAD value that exceeds the normal MARTAD value by a predetermined threshold. […] In certain alternative implementations, the predetermined threshold subject joint MARTAD value greater above the 95% confidence interval of the average MARTAD value corresponding joint from the plurality of healthy subjects.
as §1
Cutoff values for determination of macrophage involvement in RA inflammation set at MARTAD values greater than 2 S.D. above the joint specific mean.

T1 sequence (P22897 19-1456): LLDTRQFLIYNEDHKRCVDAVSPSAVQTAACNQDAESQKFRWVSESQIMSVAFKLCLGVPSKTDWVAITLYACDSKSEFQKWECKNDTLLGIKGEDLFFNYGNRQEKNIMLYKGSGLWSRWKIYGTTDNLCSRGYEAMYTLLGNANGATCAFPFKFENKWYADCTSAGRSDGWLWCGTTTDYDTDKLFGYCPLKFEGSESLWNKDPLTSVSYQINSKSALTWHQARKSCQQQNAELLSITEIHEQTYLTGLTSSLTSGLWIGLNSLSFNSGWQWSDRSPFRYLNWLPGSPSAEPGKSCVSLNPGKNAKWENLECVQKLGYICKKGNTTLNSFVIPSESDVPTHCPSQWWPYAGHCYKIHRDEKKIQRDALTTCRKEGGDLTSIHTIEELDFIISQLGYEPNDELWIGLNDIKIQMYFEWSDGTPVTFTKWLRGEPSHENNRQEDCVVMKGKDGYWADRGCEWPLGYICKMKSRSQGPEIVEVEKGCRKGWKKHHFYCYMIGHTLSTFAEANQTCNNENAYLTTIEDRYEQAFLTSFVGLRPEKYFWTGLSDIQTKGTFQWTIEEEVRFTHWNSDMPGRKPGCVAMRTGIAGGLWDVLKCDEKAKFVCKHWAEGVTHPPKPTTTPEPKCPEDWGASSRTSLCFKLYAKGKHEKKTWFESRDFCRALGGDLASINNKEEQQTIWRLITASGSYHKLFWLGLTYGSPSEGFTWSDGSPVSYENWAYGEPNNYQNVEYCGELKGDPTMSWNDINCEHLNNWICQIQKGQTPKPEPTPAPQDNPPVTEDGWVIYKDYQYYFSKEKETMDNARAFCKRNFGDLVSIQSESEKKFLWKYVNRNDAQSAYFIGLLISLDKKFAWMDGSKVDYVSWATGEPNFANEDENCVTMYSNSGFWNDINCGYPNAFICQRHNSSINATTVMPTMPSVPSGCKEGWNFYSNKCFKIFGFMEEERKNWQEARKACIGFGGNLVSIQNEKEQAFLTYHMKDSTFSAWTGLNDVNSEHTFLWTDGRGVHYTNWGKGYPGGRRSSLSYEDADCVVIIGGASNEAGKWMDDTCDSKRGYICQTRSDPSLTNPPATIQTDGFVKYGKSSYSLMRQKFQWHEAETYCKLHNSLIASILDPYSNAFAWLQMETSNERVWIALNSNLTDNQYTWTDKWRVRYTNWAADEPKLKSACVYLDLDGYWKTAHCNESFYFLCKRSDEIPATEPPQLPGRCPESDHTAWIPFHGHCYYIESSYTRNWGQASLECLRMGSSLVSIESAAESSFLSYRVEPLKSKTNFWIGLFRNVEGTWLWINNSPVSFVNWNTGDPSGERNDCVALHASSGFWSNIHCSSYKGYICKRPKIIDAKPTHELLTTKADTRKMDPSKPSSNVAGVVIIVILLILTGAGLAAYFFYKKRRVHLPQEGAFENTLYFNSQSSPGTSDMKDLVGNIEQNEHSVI

Substance: dextran 3-[(2-aminoethyl)thio]propyl 17-carboxy-10,13,16-tris(carboxymethyl)-8-oxo-4-thia-7,10,13,16-tetraazaheptadec-1-yl 3-[[2-[[1-imino-2-(D-mannopyranosylthio)ethyl]amino]ethyl]thio]propyl ether complexes [Tc99m-tilmanocept]
- Sensitivity of MARTAD values to image acquisition time (mannose receptor (CD206) [1]; image acquisition times 5-10 minutes): not sensitive
- Effect of mass dose on image quality (mannose receptor (CD206) [1]; mass dose of tilmanocept 125 μg to 400 μg IV, separate studies (not shown)): did not impact image quality
- MARTAD values of repeat images versus first images (mannose receptor (CD206) [1]; repeat images 180-240 minutes after injection vs 45-75 minutes, same subjects): statistically similar
- Mean Joint Specific MARTAD (mannose receptor (CD206) [2]; MCP1): 0.87
- Cutoff Value (MARTAD 2 S.D. above the joint specific mean) (mannose receptor (CD206) [2]; MCP1): 0.99
- Mean Joint Specific MARTAD (mannose receptor (CD206) [2]; MCP2): 0.86
- Cutoff Value (MARTAD 2 S.D. above the joint specific mean) (mannose receptor (CD206) [2]; MCP2): 1.13
- Mean Joint Specific MARTAD (mannose receptor (CD206) [2]; MCP3): 0.79
- Cutoff Value (MARTAD 2 S.D. above the joint specific mean) (mannose receptor (CD206) [2]; MCP3): 0.93
- Mean Joint Specific MARTAD (mannose receptor (CD206) [2]; MCP4): 0.77
- Cutoff Value (MARTAD 2 S.D. above the joint specific mean) (mannose receptor (CD206) [2]; MCP4): 1.00
- Mean Joint Specific MARTAD (mannose receptor (CD206) [2]; MCP5): 0.76
- Cutoff Value (MARTAD 2 S.D. above the joint specific mean) (mannose receptor (CD206) [2]; MCP5): 1.08
- Mean Joint Specific MARTAD (mannose receptor (CD206) [2]; PIP1): 0.98
- Cutoff Value (MARTAD 2 S.D. above the joint specific mean) (mannose receptor (CD206) [2]; PIP1): 1.21
- Mean Joint Specific MARTAD (mannose receptor (CD206) [2]; PIP2): 1.05
- Cutoff Value (MARTAD 2 S.D. above the joint specific mean) (mannose receptor (CD206) [2]; PIP2): 1.34
- Mean Joint Specific MARTAD (mannose receptor (CD206) [2]; PIP3): 1.03
- Cutoff Value (MARTAD 2 S.D. above the joint specific mean) (mannose receptor (CD206) [2]; PIP3): 1.39
- Mean Joint Specific MARTAD (mannose receptor (CD206) [2]; PIP4): 0.93
- Cutoff Value (MARTAD 2 S.D. above the joint specific mean) (mannose receptor (CD206) [2]; PIP4): 1.19
- Mean Joint Specific MARTAD (mannose receptor (CD206) [2]; PIP5): 0.87
- Cutoff Value (MARTAD 2 S.D. above the joint specific mean) (mannose receptor (CD206) [2]; PIP5): 1.14
- Mean Joint Specific MARTAD (mannose receptor (CD206) [2]; Wrists, images 45-75 min after injection): 1.04
- Cutoff Value (MARTAD 2 S.D. above the joint specific mean) (mannose receptor (CD206) [2]; Wrists): 1.24
